Source: US20260274833A1 (NiKang Therapeutics, Inc., priority 2022, published 2026)
pIC50: −log10 of the molar value.

The compounds below were run against T1, CDK2 (Homo sapiens, UniProt P24941) (assay: Phospho-RB measurement in OVCAR3 cells (HTRF phospho-RB cellular kit)). Conditions: inhibition of RB phosphorylation at S807/811 (HTRF, TR-FRET ratio 665/620), 24 h compound treatment, 0.3 to 10,000 nM.
T1 construct: endogenous in cells; host or cells: OVCAR3 cells
Type: cell-based
How it was run: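 IC50 came from a four-parameter logistic fit of the DMSO-normalized TR-FRET ratio (665/620 nm). That ratio reflects RB phosphorylation at S807/811, read with an HTRF antibody pair 4 h after adding lysate at room temperature.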
CC(C)(C)c1nc(-c2cccc(NS(=O)(=O)N3Cc4cccc(OCCN)c4C3)c2F)c(-c2ccnc(NC3CCN(S(C)(=O)=O)CC3)n2)s1 [Example 244, 4-(2-aminoethoxy)-N-(3-(2-(tert-butyl)-5-(2-((1-(methylsulfonyl)piperidin-4-yl)amino)-pyrimidin-4-yl)thiazol-4-yl)-2-fluorophenyl)-isoindoline-2-sulfonamide] was tested, and the pIC50 was 5.84. CC(C)(C)c1nc(-c2cccc(NS(=O)(=O)N3CCc4c(CN5CCOCC5)cccc43)c2F)c(-c2ccnc(NC3CCN(S(C)(=O)=O)CC3)n2)s1 [Example 245, N-(3-(2-(tert-butyl)-5-(2-((1-(methylsulfonyl)piperidin-4-yl)amino)-pyrimidin-4-yl)thiazol-4-yl)-2-fluorophenyl)-4-(morpholinomethyl)-indoline-1-sulfonamide] was tested, and the pIC50 was 6.47. CC(C)(C)c1nc(-c2cccc(NS(=O)(=O)N3Cc4ccc(CC#N)cc4C3)c2F)c(-c2ccnc(NC3CC4(C3)CS(=O)(=O)C4)n2)s1 [Example 246, N-(3-(2-(tert-butyl)-5-(2-((2,2-dioxido-2-thiaspiro[3.3]heptan-6-yl)amino)-pyrimidin-4-yl)thiazol-4-yl)-2-fluoro-phenyl)-5-(cyanomethyl)-isoindoline-2-sulfonamide] gave a pIC50 of 6.48. With CC(C)(C)c1nc(-c2cccc(NS(=O)(=O)N3Cc4cccc(OCC#N)c4C3)c2F)c(-c2ccnc(NC3CCN(S(C)(=O)=O)CC3)n2)s1 [Example 247, N-(3-(2-(tert-butyl)-5-(2-((1-(methylsulfonyl)-piperidin-4-yl)amino)-pyrimidin-4-yl)thiazol-4-yl)-2-fluoro-phenyl)-4-(cyanomethoxy)-isoindoline-2-sulfonamide] the pIC50 was 6.93. CN(C)Cc1ccc(Nc2nccc(-c3sc(C(C)(C)C)nc3-c3cccc(NS(=O)(=O)N4CCc5ccc(C#N)cc54)c3F)n2)cc1 [Example 248, N-(3-(2-(tert-butyl)~5-(2-((4-((dimethylamino)-methyl)phenyl)-amino)pyrimidin-4-yl)thiazol-4-yl)-2-fluorophenyl)-6-cyanoindoline-1-sulfonamide] showed a pIC50 of 6.39. In the case of CN1CCN(c2ccc(Nc3nccc(-c4sc(C(C)(C)C)nc4-c4cccc(NS(=O)(=O)N5CCc6ccc(C#N)cc65)c4F)n3)cc2)CC1 [Example 249, N-(3-(2-(tert-butyl)-5-(2-((4-(4-methyl-piperazin-1-yl)phenyl)amino)pyrimidin-4-yl)-thiazol-4-yl)-2-fluoro-phenyl)-6-cyanoindoline-1-sulfonamide], the pIC50 was 6.16. Work on CC(C)(C)c1nc(-c2cccc(NS(=O)(=O)N3CCc4ccc(C#N)cc43)c2F)c(-c2ccnc(Nc3ccc(N4CCN(C5COC5)CC4)cc3)n2)s1 [Example 250, N-(3-(2-(tert-butyl)-5-(2-((4-(4-(oxetan-3-yl)-piperazin-1-yl)phenyl)amino)-pyrimidin-4-yl)thiazol-4-yl)-2-fluoro-phenyl)-6-cyanoindoline-1-sulfonamide] yielded a pIC50 of 6.24. Compound Cn1ncc2c1CN(S(=O)(=O)Nc1cccc(-c3nc(C(C)(C)C)sc3-c3ccnc(Nc4ccc(N5CCNCC5)cc4)n3)c1F)C2 [Example 251] has a pIC50 of 5.81. In the case of Cn1cc2c(n1)CN(S(=O)(=O)Nc1cccc(-c3nc(C(C)(C)C)sc3-c3ccnc(Nc4ccc(N5CCNCC5)cc4)n3)c1F)C2 [Example 252, N-(3-(2-(tert-butyl)-5-(2-((4-(piperazin-1-yl)-phenyl)amino)pyrimidin-4-yl)-thiazol-4-yl)-2-fluorophenyl)-2-methyl-2,6-dihydropyrrolo-[3,4-c]pyrazole-5(4H)-sulfonamide], the pIC50 was 5.48. With CC(C)(C)c1nc(-c2cccc(NS(=O)(=O)N3Cc4ccc(C(F)F)cc4C3)c2F)c(-c2ccnc(NC3CCN(S(C)(=O)=O)CC3)n2)s1 [Example 254, N-(3-(2-(tert-butyl)-5-(2-((1+ (methylsulfonyl)-piperidin-4-yl)amino)-pyrimidin-4-yl)thiazol-4-yl)-2-fluoro-phenyl)-5-(difluoromethyl)-isoindoline-2-sulfonamide] the pIC50 was 6.50. Work on CC(C)(C)c1nc(-c2cccc(NS(=O)(=O)N3Cc4ccc(C(F)F)cc4C3)c2F)c(-c2ccnc(NC3CC4(C3)CS(=O)(=O)C4)n2)s1 [Example 255, N-(3-(2-(tert-butyl)-5-(2-((2,2-dioxido-2-thiaspiro[3.3]heptan-6-yl)amino)-pyrimidin-4-yl)thiazol-4-yl)-2-fluoro-phenyl)-5-(difluoromethyl) isoindoline-2-sulfonamide] yielded a pIC50 of 6.17. For CC(C)(C)c1nc(-c2cccc(NS(=O)(=O)N3Cc4ccccc4C34CC4)c2F)c(-c2ccnc(NC3CCN(S(C)(=O)=O)CC3)n2)s1 [Example 256, N-(3-(2-(tert-butyl)-5-(2-((1-(methylsulfonyl)-piperidin-4-yl)amino)-pyrimidin-4-yl)thiazol-4-yl)-2-fluoro-phenyl)spiro [cyclopropane-1,1′-isoindoline]-2′-sulfonamide], the pIC50 was 5.51. Work on CC(C)(C)c1nc(-c2cccc(NS(=O)(=O)N3CCc4ccc(C(C)(C)O)cc43)c2F)c(-c2ccnc(NC3CC4(C3)CS(=O)(=O)C4)n2)s1 [Example 257, N-(3-(2-(tert-butyl)-5-(2-((2,2-dioxido-2-thiaspiro[3.3]heptan-6-yl)amino)-pyrimidin-4-yl)thiazol-4-yl)-2-fluoro-phenyl)-6-(2-hydroxypropan-2-yl)indoline-1-sulfonamide] yielded a pIC50 of 5.53. CNc1cccc2c1N(S(=O)(=O)Nc1cccc(-c3nc(C(C)(C)C)sc3-c3ccnc(NC4CCN(S(C)(=O)=O)CC4)n3)c1F)CC2 [Example 258, N-(3-(2-(tert-butyl)-5-(2-((1-(methylsulfonyl)-piperidin-4-yl)amino)-pyrimidin-4-yl)thiazol-4-yl)-2-fluoro-phenyl)-7-(methylamino) indoline-1-sulfonamide] gave a pIC50 of 6.36. For CN(c1cccc2c1NCC2)S(=O)(=O)Nc1cccc(-c2nc(C(C)(C)C)sc2-c2ccnc(NC3CCN(S(C)(=O)=O)CC3)n2)c1F [Example 259, N-(3-(2-(tert-butyl)-5-(2-((1-(methylsulfonyl)-piperidin-4-yl)amino)-pyrimidin-4-yl)thiazol-4-yl)-2-fluoro-phenyl)-(N-methyl-N-indolin-7-yl)-amine-sulfonamide], the pIC50 was 5.69. CC(C)(C)c1nc(-c2cccc(NS(=O)(=O)N3CCc4ccc(C(C)(C)C#N)cc43)c2F)c(-c2ccnc(NC3CC4(C3)CS(=O)(=O)C4)n2)s1 [Example 260, N-(3-(2-(tert-butyl)-S-(2-((2,2-dioxido-2-thiaspiro[3.3]heptan-6-yl)amino)-pyrimidin-4-yl)thiazol-4-yl)-2-fluoro-phenyl)-6-(2-cyanopropan-2-yl)indoline-1-sulfonamide] gave a pIC50 of 6.18. For CC(C)(C)c1nc(-c2cccc(NS(=O)(=O)N3CCc4ccc(S(C)(=O)=O)cc43)c2F)c(-c2ccnc(NC3CC4(C3)CS(=O)(=O)C4)n2)s1 [Example 261, N-(3-(2-(tert-butyl)-5-(2-((2,2-dioxido-2-thiaspiro[3.3]heptan-6-yl)amino)-pyrimidin-4-yl)thiazol-4-yl)-2-fluoro-phenyl)-6-(methylsulfonyl)-indoline-1-sulfonamide], the pIC50 was 6.16. CC(C)(C)c1nc(-c2cccc(NS(=O)(=O)N3Cc4cccc(C(F)F)c4C3)c2F)c(-c2ccnc(NC3CC4(C3)CS(=O)(=O)C4)n2)s1 [Example 262, N~(3-(2-(tert-butyl)-5-(2-((2,2-dioxido-2-thiaspiro[3.3]heptan-6-yl)amino)-pyrimidin-4-yl)thiazol-4-yl)-2-fluoro-phenyl)-4-(difluoromethyl)-isoindoline-2-sulfonamide] gave a pIC50 of 7.51. In the case of N#Cc1ccc2c(c1)N(S(=O)(=O)Nc1cccc(-c3nc(C45CC(C4)C5)sc3-c3ccnc(NC4CCN(S(=O)(=O)N5CCNCC5)CC4)n3)c1F)CC2 [Example 263, N-(3-(2-(bicyclo [1.1.1]pentan-1-yl)-5-(2-((1-(piperazin-1-ylsulfonyl)piperidin-4-yl)amino)-pyrimidin-4-yl)thiazol-4-yl)-2-fluorophenyl)-6-cyanoindoline-1-sulfonamide], the pIC50 was 6.93. With O=S1(=O)CC2(CC(Nc3nccc(-c4sc(C56CC(C5)C6)nc4-c4cccc(NS(=O)(=O)N5CCc6ccncc65)c4F)n3)C2)C1 [Example 264, N-(3-(2-(bicyclo [1.1.1]pentan-1-yl)-5-(2-((2,2-dioxido-2-thiaspiro[3.3]heptan-6-yl)amino)-pyrimidin-4-yl)thiazol-4-yl)-2-fluorophenyl)-2,3-dihydro-1H-pyrrolo[2,3-c]pyridine-1-sulfonamide] the pIC50 was 5.74. O=S1(=O)CC2(CC(Nc3nccc(-c4sc(C56CC(C5)C6)nc4-c4cccc(NS(=O)(=O)N5C6CCC5CC6)c4F)n3)C2)C1 [Example 265, N-(3-(2-(bicyclo[1.1. 1]pentan-1-yl)-5-(2-((2,2-dioxido-2-thiaspiro[3.3]heptan-6-yl)amino)-pyrimidin-4-yl)thiazol-4-yl)-2-fluorophenyl)-7-azabicyclo[2.2.1]-heptane-7-sulfonamide] gave a pIC50 of 5.28. Compound O=S1(=O)CC2(CC(Nc3nccc(-c4sc(C56CC(C5)C6)nc4-c4cccc(NS(=O)(=O)N5C6CCC5CC(F)(F)C6)c4F)n3)C2)C1 [Example 266, N-(3-(2-(bicyclo [1.1.1]pentan-1-yl)-5-(2-((2,2-dioxido-2-thiaspiro[3.3]heptan-6-yl)amino)-pyrimidin-4-yl)thiazol-4-yl)-2-fluorophenyl)-3,3-difluoro-8-azabicyclo-[3.2.1]octane-8-sulfonamide] has a pIC50 of 5.07. O=S1(=O)CC2(CC(Nc3nccc(-c4sc(C56CC(C5)C6)nc4-c4cccc(NS(=O)(=O)N5CC6CCC5CC6)c4F)n3)C2)C1 [Example 267, (1s,4s)-N-(3-(2-(bicyclo[1.1.1]pentan-]-yl)-5-(2-((2,2-dioxido-2-thiaspiro-[3.3]heptan-6-yl)amino)pyrimidin-4-yl)thiazol-4-yl)-2-fluorophenyl)-2-azabicyclo[2.2.2] octane-2-sulfonamide] gave a pIC50 of 5.03.
